Values of other authors in US20070027110A1, “Double salts of (-)-hydroxycitric acid with an amine and a group II a metal and a process for preparing the same” (priority 2004, published 2007).

Conditions: free acid form, forming lactone; liquid form unstable during storage

For `O=C(O)CC(O)(C(=O)O)C(O)C(=O)O` (single isomer, unassigned; (-)) [(−)-hydroxycitric acid], the stability is listed as “unstable”.
